Measured values published in patent US20230235282A1, “SERUM-FREE INDUCTION METHOD FOR SENSORY NEURON CELL” (IREGENE THERAPEUTICS LTD, priority 2020, published 2023).
Read-outs that look alike come from different tables or passages of the source.

Columns and labels:
[1] = system: sensory neuron cells from CD34+-derived induced pluripotent stem cells; experiment: Morphology / axon formation of induced sensory neuron cells; assay type: cell-based, human; conditions: for axon formation: low (3 μM), medium (6 μM) and high (10 μM) concentration
Procedure: After obtaining the above-mentioned various sensory nerve precursor cells, the medium was removed, and cells were washed with DPBS, and then treated with 0.05% trypsin/EDTA at 37° C. for 5 minutes, and then cell digestion was terminated with DMEM. After the cells were washed and centrifuged, the cells were re-seeded in a T25 culture flask at 1-5×10^5 per plate, and the sensory nerve precursor cells were induced to differentiate and expand into mature sensory neurons by using sensory neuron cell medium. The conditions for cell culture were 37° C., 5% CO2.

[2] = system: sensory neuron cells from CD34+-derived induced pluripotent stem cells; experiment: Q-PCR of marker genes in induced sensory neuron cells
Procedure: Total RNA from different sensory neuron cells was extracted by RNeasy Mini or Micro Kit (QIAGEN), and cDNA was synthesized from 1 mg RNA by SuperScript III First-Strand Synthesis System (Invitrogen). SYBR Premix Ex Taq (TaKaRa) and Thermal Cycler Dice Real Time System (TaKaRa) were used for labeling and reaction of Quantitative PCR, and beta-Actin was used as internal control. All data were analyzed by delta-Ct method. Triplicates were used for each group of experiments, and statistics were performed with ANOVA.

[3] = system: sensory nerve precursor cells from CD34+-derived cells; experiment: Induction of sensory nerve precursor cells with different small molecules (morphology, Q-PCR of precursor markers); assay type: cell-based, human; conditions: 5 μM in induction medium
Procedure: When the induced pluripotent stem cells reached 70% coverage, they were digested with 0.05% trypsin/EDTA for 5 min at 37° C., and the cell digestion was terminated by using DMEM. After the cells were washed and centrifuged, they were re-seeded in a T25 culture plate at 2×10^5 per flask, and cultured in a sensory neuron induction medium at 37° C., 5% CO2 (Panasonic, MCO-18AC) for 10 days until the formation of neural plate, which confirmed the formation of sensory nerve precursor cells.
All data were analyzed by delta-Ct method.
(5.2) Taking CD34+-derived cells as an example, different small molecules (5 μM RepSox, 5 μM SB525334 and 5 μM TEW-7197 molecules) were used to replace the LY2157299 in the sensory neuron induction medium N2GS212I-2 in Section (3.1) of Example 3; steps in Section (3.1) of Example 3 were repeated to observe the effects of different small molecules on the induced sensory nerve precursor cells.
(5.3) Taking CD34+-derived cells as an example, steps of Example 4 (4.3) were repeated by using the sensory nerve precursor cells obtained in (5.2), and the effects of different small molecules on the expression of neuronal precursor cell markers during the formation of sensory nerve precursor cells were observed. As shown in the figures, the different inhibitor molecules were not only able to form neuron precursor cells (forming a neural plate structure shown in the figure), but also able to increase the expressions of neuron precursor cell markers.

sodium ion channel 1.7 = target: T1, sodium ion channel 1.7 (Homo sapiens, UniProt Q15858); experiment: MEA spontaneous discharge after PF-05089771; assay type: cell-based; conditions: for electrophysiological strength of sodium ion channels of induced cells: various concentrations in induction/culture medium, after 1 μM PF-05089771, fibroblast-derived
T1 construct: endogenous in cells; host or cells: sensory neurons induced from human fibroblast-derived iPSCs
T1 sequence (Q15858 whole entry): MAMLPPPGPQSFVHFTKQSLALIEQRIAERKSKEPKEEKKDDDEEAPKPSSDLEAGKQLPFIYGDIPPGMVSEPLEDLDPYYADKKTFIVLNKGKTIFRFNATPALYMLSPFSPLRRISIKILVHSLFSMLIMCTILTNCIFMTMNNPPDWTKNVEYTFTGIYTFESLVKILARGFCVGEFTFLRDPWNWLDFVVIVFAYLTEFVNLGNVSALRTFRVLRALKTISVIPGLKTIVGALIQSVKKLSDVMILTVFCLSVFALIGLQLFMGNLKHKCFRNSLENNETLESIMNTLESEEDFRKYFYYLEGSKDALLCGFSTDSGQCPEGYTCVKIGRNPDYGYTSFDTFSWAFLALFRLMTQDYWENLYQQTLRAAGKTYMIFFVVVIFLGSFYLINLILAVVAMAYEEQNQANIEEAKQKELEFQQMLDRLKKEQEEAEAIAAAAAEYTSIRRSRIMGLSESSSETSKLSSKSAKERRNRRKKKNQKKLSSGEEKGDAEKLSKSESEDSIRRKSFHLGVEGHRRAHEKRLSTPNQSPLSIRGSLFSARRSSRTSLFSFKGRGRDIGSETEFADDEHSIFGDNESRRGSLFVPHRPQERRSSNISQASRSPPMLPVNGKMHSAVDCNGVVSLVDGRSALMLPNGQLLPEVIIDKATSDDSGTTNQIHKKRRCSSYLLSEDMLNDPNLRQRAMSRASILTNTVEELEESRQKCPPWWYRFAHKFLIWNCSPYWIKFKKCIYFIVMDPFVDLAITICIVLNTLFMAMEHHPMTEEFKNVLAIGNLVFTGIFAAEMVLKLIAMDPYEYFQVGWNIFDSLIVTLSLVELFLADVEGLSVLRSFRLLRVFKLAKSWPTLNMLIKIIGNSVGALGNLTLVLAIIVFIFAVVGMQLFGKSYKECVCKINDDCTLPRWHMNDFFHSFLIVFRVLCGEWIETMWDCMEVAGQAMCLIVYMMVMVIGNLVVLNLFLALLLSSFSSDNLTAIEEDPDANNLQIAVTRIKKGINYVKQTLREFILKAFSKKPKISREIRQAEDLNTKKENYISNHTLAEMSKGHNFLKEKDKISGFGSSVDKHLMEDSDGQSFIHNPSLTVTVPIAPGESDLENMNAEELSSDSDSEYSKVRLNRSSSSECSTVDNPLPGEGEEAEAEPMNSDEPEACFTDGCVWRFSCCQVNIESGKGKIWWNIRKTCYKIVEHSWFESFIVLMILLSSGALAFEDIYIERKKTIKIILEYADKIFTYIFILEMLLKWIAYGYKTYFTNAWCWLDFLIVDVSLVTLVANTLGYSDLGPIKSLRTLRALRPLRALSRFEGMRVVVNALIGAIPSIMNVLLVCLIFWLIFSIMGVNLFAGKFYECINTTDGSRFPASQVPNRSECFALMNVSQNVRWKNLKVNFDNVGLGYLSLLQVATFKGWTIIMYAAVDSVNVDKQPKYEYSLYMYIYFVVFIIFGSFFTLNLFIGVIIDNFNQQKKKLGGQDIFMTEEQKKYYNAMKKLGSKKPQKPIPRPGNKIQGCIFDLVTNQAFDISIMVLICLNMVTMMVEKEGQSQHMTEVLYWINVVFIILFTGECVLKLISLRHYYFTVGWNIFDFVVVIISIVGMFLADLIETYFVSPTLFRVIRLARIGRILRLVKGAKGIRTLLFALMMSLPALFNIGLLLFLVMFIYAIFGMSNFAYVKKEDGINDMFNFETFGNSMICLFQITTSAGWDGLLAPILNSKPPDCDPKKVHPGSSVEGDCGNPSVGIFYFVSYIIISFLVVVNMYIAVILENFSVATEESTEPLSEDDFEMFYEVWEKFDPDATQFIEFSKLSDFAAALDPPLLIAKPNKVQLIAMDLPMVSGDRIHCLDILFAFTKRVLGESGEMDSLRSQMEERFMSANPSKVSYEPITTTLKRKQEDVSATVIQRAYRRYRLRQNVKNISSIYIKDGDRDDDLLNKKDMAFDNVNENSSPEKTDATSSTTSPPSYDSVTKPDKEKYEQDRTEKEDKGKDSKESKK

[4] = Osmotic pressure of the culture system by freezing point osmometer; assay type: physicochemical
Procedure: In order to observe the effect of different concentrations of glycine-glutamine monohydrate on osmotic pressure, the effect of different concentrations of glycine-glutamine monohydrate on the osmotic pressure of culture system was detected by using an automatic freezing point osmometer (FM-8P, Shanghai Medical University Instrument Co., Ltd.), and specific operations were performed according to the product manual (FM-8P, Shanghai Medical University Instrument Co., Ltd.).

[5] = system: induced sensory neurons derived from fibroblasts; experiment: Cyquant cell viability assay; assay type: cell-based, human; conditions: day 1, 3, 5, 10; different concentrations of NT3
Procedure: The cell viability was quantitatively detected by Cyquant assay to compare the effects of different combinations of small molecule compounds on maintaining physiological states of cells during long-term culture of induced sensory neurons.
Cell plate coating was performed in a 96-well opaque cell culture plate according to the method in Example 4 (4.4.1). […] The cells were cultured in the sensory neuron cell induction medium of Example 3 with different concentrations of NT3, and the culture conditions were 37° C., 5% carbon dioxide, and the medium was half quantity changed every three days. The medium in the known method was used as a control group. Samples were taken at day 1, day 3, day 5 and day 10, respectively, and the cell viability detection was carried out by using CyQuant Kit (Invitrogen, X12223) according to the instruction manual, and date were read by SpectraMax i3 Multi-Mode Microplate Reader (VWR, ID3-STD).

c1ccc2c(-c3cnn4cc(-c5ccc(N6CCNCC6)cc5)cnc34)ccnc2c1 [LDN193189]
induction of cell types with neural axons ([1]; 12 nM, 50 nM and 180 nM): cell types with neural axons can be induced
expression of Caspase3 relative to serum control group ([2]; LDN193189 180 nM or more): more than 1.5 times
expression of sodium ion channel 1.8 (SCN10A) ([2]; LDN193189 below 12 nM): lower than that in serum control

Cc1cccc(-c2nn3c(c2-c2ccnc4ccc(C(N)=O)cc24)CCC3)n1 [LY2157299]
formation of neuron precursor cells (neural plate structure) [3]: neuron precursor cells formed
antagonism against PF-05089771 of the induced neurons (sodium ion channel 1.7; neurons induced by using LY2157299, 1 μM PF-05089771): more antagonism against PF-05089771
electrophysiological strength of sodium ion channels of induced cells (sodium ion channel 1.7): significantly improved
expressions of SCN9A and SCN11A compared with the serum induction method ([2]; 7.5 μM and 25 μM): significantly increased
expression of various sodium ion channel proteins versus concentration ([2]; Q-PCR, different LY2157299 concentrations in induction medium): linear increase in concentration versus protein expression
ion channel protein expressions ([2]; concentrations of below 50 nM): significantly lower than normal levels

Cc1cccc(-c2[nH]c(C(C)(C)C)nc2-c2ccc3nccnc3c2)n1 [SB525334]
formation of neuron precursor cells (neural plate structure) [3]: neuron precursor cells formed

Cc1cccc(-c2[nH]c(CNc3ccccc3F)nc2-c2ccc3ncnn3c2)n1 [TEW-7197]
formation of neuron precursor cells (neural plate structure) [3]: neuron precursor cells formed

CHIR98014
expression of SCN11A (Nav1.9) compared with the serum induction method [2]: significantly increased
expression of ion channel protein [2]: lower than normal level
expression of neuron marker Tuj [2]: lower than that at other concentrations

Cc1c[nH]c(/C=C2\C(=O)Nc3ccccc32)c1CCC(=O)O [SU5402]
axon formation [1]: could form axons
electrophysiological strength of sodium ion channels of induced cells (sodium ion channel 1.7): significantly improved
cell death marker CASP3 ([2]; SU5402 higher than 15 μM): significantly increased
expression of ion channel protein compared with serum induction method ([2]; SU5402 lower than 3 μM): lower than the control level

O=S(=O)(O)CCN1CCN(CCO)CC1 [HEPES buffer, HEPES]
cell morphology ([1]; HEPES buffer 5 mM, 10 mM, 15 mM): morphologically normal
cell tolerance ([1]; high concentration (15 mM)): cell intolerance began to appear
osmotic pressure with increase of concentration ([4]; HEPES buffer in medium): increased linearly
osmotic pressure of the culture system ([4]; concentration more than 15 mM): > 320 mOsm/kg

Cc1cccc(-c2[nH]ncc2-c2ccc3ncccc3n2)n1 [RepSox]
formation of neuron precursor cells (neural plate structure) [3]: neuron precursor cells formed

C[C@H](NC(=O)Cc1cc(F)cc(F)c1)C(=O)N[C@H](C(=O)OC(C)(C)C)c1ccccc1 [DAPT]
axon formation [1]: able to form axons
induced neuron cell markers and peripheral sensory neuron cell markers ([2]; DAPT lower than 3 μM): much lower than those in the serum control group
expression of neuron marker Tuj ([2]; DAPT more than 10 μM): increased
expression of sodium ion channel 1.8 (SCN10A) ([2]; DAPT more than 10 μM): decreased

B1: NT3: human-NT3 (Novoprotein, Cat. No. C079), added to sensory neuron cell medium (protein, UniProt P20783 139-257, looked up)
Neurotrophin-3: YAEHKSHRGEYSVCDSESLWVTDKSSAIDIRGHQVTVLGEIKTGNSPVKQYFYETRCKEARPVKNGCRGIDDKHWNSQCKTSQTYVRALTSENNKLVGWRWIRIDTSCVCALSRKIGRT
modifications: Neurotrophin-3
notes: human-NT3 (Novoprotein, Cat. No. C079), added to sensory neuron cell medium
in vitro viability of induced neurons in long-term culture vs serum induction method [5]: effectively increase the in vitro viability
